Laboratory results taken from publication PMC12892976, “Alkylation-based optimization of antifungal FPPS inhibitors yields a potent, broad-spectrum lipophilic zoledronate derivative” (mBio, 2025).
In brackets after ≈: the same amount, converted by molar mass. Like-named read-outs stand apart in the source and are kept apart here.

Columns and labels:
[1] = tested on: Aspergillus flavus; experiment: MIC/MFC broth microdilution (CLSI); conditions: ATCC204304
Experimental: (§1) Antifungal susceptibility was determined by broth microdilution according to the CLSI guidelines described in M27-Ed4 ([16]). […] MFC was determined by back-plating drug-treated cultures from MIC broths onto SDA plates. The MFC was defined as the lowest concentration from which no colonies could be cultured.

[2] = tested on: Candida glabrata; experiment: checkerboard drug interaction (FICI, MICc);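 on all read-outs here: simplified diagonal checkerboard screen pairing antifungals with FPPS inhibitors, FICI calculated under the Loewe additivity model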; type: cell-based; conditions: C. glabrata; for INH FD (MIC-MICc fold decrease): fold decrease of inhibitor MIC
Experimental: (§2) Drug interactions between antifungals and FPPS inhibitors were investigated using a simplified checkerboard diagonal screening method ([45]). […] FICIs were determined according to the Loewe additivity model ([17]).

[3] = tested on: Cryptococcus neoformans; experiment: checkerboard drug interaction (FICI, MICc);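 on all read-outs here: antifungal plus FPPS inhibitor pairs tested against Cryptococcus neoformans by simplified diagonal checkerboard screening, FICI computed under the Loewe additivity model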; type: cell-based; conditions: C. neoformans; for INH FD (MIC-MICc fold decrease): fold decrease of inhibitor MIC
Experimental: as §2

[4] = tested on: Aspergillus flavus; experiment: checkerboard drug interaction (FICI, MICc);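 further: simplified diagonal checkerboard screen pairing azole antifungals with FPPS inhibitors, FICI calculated under the Loewe additivity model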; type: cell-based; design: INH MICc (KET:INH) / INH MICc (FLC:INH): unit not given beside the values; conditions: A. flavus
[5] = tested on: Aspergillus fumigatus; experiment: MIC/MFC broth microdilution (CLSI); conditions: ATCC204305
Experimental: as §1

[6] = tested on: Cryptococcus neoformans; experiment: MIC/MFC broth microdilution (CLSI); conditions: Cryptococcus neoformans;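 further: susceptibility testing followed the CLSI M27-Ed4 broth microdilution document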
Experimental: as §1

[7] = tested on: Candida albicans; experiment: MIC/MFC broth microdilution (CLSI); type: cell-based; conditions: Candida albicans SC5314
Experimental: as §1

[8] = tested on: Cryptococcus deuterogattii; experiment: checkerboard drug interaction (FICI, MICc);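 on all read-outs here: simplified diagonal checkerboard screen pairing antifungal drugs with FPPS inhibitors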; type: cell-based; conditions: C. deuterogattii; for INH FD (MIC-MICc fold decrease): fold decrease of inhibitor MIC
Experimental: as §2

[9] = tested on: eight fungal species; experiment: checkerboard interaction with azoles, summary across the eight species; type: cell-based; conditions: geometric mean MIC in combination with azoles
Text: Synergy between lipophilic FPPS inhibitors and azole antifungals was investigated by determining the fractional inhibitory concentration index (FICI) (Fig. 2; Table S1 Fig. S1) ([17]). […]. Derivatives PLA9 and 11, and PDA9, 11, and 12 antagonized azoles in C. albicans, C. neoformans, and C. deuterogattii, yet were largely synergistic in C. glabrata and S. cerevisiae. […].

[10] = tested on: Candida glabrata; experiment: MIC/MFC broth microdilution (CLSI); conditions: Nakaseomyces glabratus, CBS138;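 further: broth microdilution following CLSI M27-Ed4, MFC taken as the lowest drug level yielding no growth once MIC wells were subcultured on SDA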
Experimental: as §1

[11] = tested on: Trichophyton rubrum; experiment: MIC/MFC broth microdilution (CLSI); conditions: Trichophyton rubrum
Experimental: as §1

[12] = tested on: eight fungal species; experiment: MIC/MFC summary across the eight fungal species of Table 1; type: cell-based
Experimental: The antifungal activity of these compounds was evaluated according to CLSI guidelines ([16]).

[13] = tested on: Trichophyton rubrum; experiment: checkerboard drug interaction (FICI, MICc);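 further: simplified diagonal checkerboard screen pairing azole antifungals with FPPS inhibitors, FICI calculated under the Loewe additivity model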; type: cell-based; conditions: T. rubrum
Experimental: as §2

[14] = tested on: Saccharomyces cerevisiae; experiment: checkerboard drug interaction (FICI, MICc);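 on all read-outs here: simplified diagonal checkerboard screen pairing antifungals with FPPS inhibitors, FICI calculated under the Loewe additivity model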; type: cell-based; design: INH MICc / INH MICc (ITR:INH) / INH MICc (KET:INH) / INH MICc (FLC:INH): unit not given beside the values; conditions: S. cerevisiae; for INH FD (MIC-MICc fold decrease): fold decrease of inhibitor MIC
[15] = tested on: Candida albicans; experiment: checkerboard drug interaction (FICI, MICc);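 on all read-outs here: antifungal plus FPPS inhibitor combinations on Candida albicans tested by a simplified diagonal checkerboard screen, with FICI calculated under the Loewe additivity model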; type: cell-based; conditions: C. albicans; for INH FD (MIC-MICc fold decrease): fold decrease of inhibitor MIC
Experimental: as §2

[16] = tested on: Saccharomyces cerevisiae; experiment: MIC/MFC broth microdilution (CLSI); type: cell-based; conditions: Saccharomyces cerevisiae S288c
Experimental: as §1

[17] = tested on: HEK-293T cells; experiment: MTT reduction cytotoxicity assay; type: cell-based; conditions: Homo sapiens, HEK-293T, 72 h, MTT, 72 h
[18] = tested on: Cryptococcus deuterogattii; experiment: MIC/MFC broth microdilution (CLSI); conditions: Cryptococcus deuterogattii;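 further: broth microdilution per CLSI M27-Ed4. MFC is the lowest concentration yielding no colonies when MIC broths are subcultured onto SDA plates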
Experimental: as §1

[19] = tested on: Aspergillus fumigatus; experiment: checkerboard drug interaction (FICI, MICc);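 on all read-outs here: simplified diagonal checkerboard screen pairing antifungals with FPPS inhibitors against Aspergillus fumigatus, with FICI calculated under the Loewe additivity model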; type: cell-based; conditions: A. fumigatus; for INH FD (MIC-MICc fold decrease): fold decrease of inhibitor MIC
Experimental: as §2

[20] = FLC:INH combination, MIC of the inhibitor in combination with FLC
[21] = FLC:INH combination, fold decrease of FLC MIC
[22] = ITR:INH combination, MIC of the inhibitor in combination with ITR
[23] = ITR:INH combination, fold decrease of ITR MIC
[24] = KET:INH combination, MIC of the inhibitor in combination with KET
[25] = KET:INH combination, fold decrease of KET MIC
[26] = Fractional Inhibitory Concentration Index, fluconazole + inhibitor
[27] = Fractional Inhibitory Concentration Index, itraconazole + inhibitor
[28] = Fractional Inhibitory Concentration Index, ketoconazole + inhibitor
[29] = MIC of the inhibitor in combination with fluconazole
[30] = MIC of the inhibitor in combination with itraconazole
[31] = MIC of the inhibitor in combination with ketoconazole
[32] = MIC-MICc fold decrease of fluconazole, negative = increase
[33] = MIC-MICc fold decrease of itraconazole, negative = increase
[34] = MIC-MICc fold decrease of ketoconazole, negative = increase
[35] = MIC-MICc fold decrease of the inhibitor, with fluconazole
[36] = MIC-MICc fold decrease of the inhibitor, with itraconazole
[37] = MIC-MICc fold decrease of the inhibitor, with ketoconazole
[38] = FLC:INH combination, MIC of FLC in combination with the inhibitor
[39] = ITR:INH combination, MIC of ITR in combination with the inhibitor
[40] = KET:INH combination, MIC of KET in combination with the inhibitor

CCCCCCCCCN1CCC[C@H]1C(=O)N[C@@H](CC(=O)OC)C(=O)OC [dmPLA9]
MFC [1]: > 128 µg/mL | MIC [1]: > 128 µg/mL | FICI ([2]; FLC:INH combination): ≥4 | INH MICc [2, 20]: 64 | FLC FD (MIC-MICc fold decrease) [2, 21]: -4 | INH FD (MIC-MICc fold decrease) ([2]; FLC:INH combination): 4 | FICI ([2]; ITR:INH combination): 1.5 | INH MICc [2, 22]: 8 | ITR FD (MIC-MICc fold decrease) [2, 23]: 1 | INH FD (MIC-MICc fold decrease) ([2]; ITR:INH combination): 32 | FICI ([2]; KET:INH combination): 1.5 | INH MICc [2, 24]: 8 | KET FD (MIC-MICc fold decrease) [2, 25]: 1 | INH FD (MIC-MICc fold decrease) ([2]; KET:INH combination): 32 | FICI ([3]; FLC:INH combination): ≥4 | INH MICc [3, 20]: 128 | FLC FD (MIC-MICc fold decrease) [3, 21]: -4 | INH FD (MIC-MICc fold decrease) ([3]; FLC:INH combination): -2 | FICI ([3]; ITR:INH combination): ≥4 | INH MICc [3, 22]: 128 | ITR FD (MIC-MICc fold decrease) [3, 23]: -4 | INH FD (MIC-MICc fold decrease) ([3]; ITR:INH combination): -2 | FICI ([3]; KET:INH combination): 3 | INH MICc [3, 24]: 64 | KET FD (MIC-MICc fold decrease) [3, 25]: -2 | INH FD (MIC-MICc fold decrease) ([3]; KET:INH combination): 1 | FICI (FLC:INH) [4, 26]: 1.5 | FICI (ITR:INH) [4, 27]: 2 | FICI (KET:INH) [4, 28]: 1 | INH MICc (FLC:INH) [4, 29]: 128 | INH MICc (ITR:INH) [4, 30]: 256 | INH MICc (KET:INH) [4, 31]: 128 | FLC FD (FLC:INH) [4, 32]: 1 | ITR FD (ITR:INH) [4, 33]: 1 | KET FD (KET:INH) [4, 34]: 2 | INH FD (FLC:INH) [4, 35]: 2 | INH FD (ITR:INH) [4, 36]: 1 | INH FD (KET:INH) [4, 37]: 2 | MFC [5]: > 128 µg/mL | MIC [5]: 128 µg/mL (≈ 333 µM) | MFC [6]: > 128 µg/mL | MIC [6]: 128 µg/mL (≈ 333 µM) | MFC [7]: > 128 µg/mL | MIC [7]: > 128 µg/mL | FICI ([8]; FLC:INH combination): 3 | INH MICc [8, 20]: 128 | FLC FD (MIC-MICc fold decrease) [8, 21]: -2 | INH FD (MIC-MICc fold decrease) ([8]; FLC:INH combination): 1 | FICI ([8]; ITR:INH combination): ≥4 | INH MICc [8, 22]: 256 | ITR FD (MIC-MICc fold decrease) [8, 23]: -4 | INH FD (MIC-MICc fold decrease) ([8]; ITR:INH combination): -2 | FICI ([8]; KET:INH combination): 1.5 | INH MICc [8, 24]: 128 | KET FD (MIC-MICc fold decrease) [8, 25]: 2 | INH FD (MIC-MICc fold decrease) ([8]; KET:INH combination): 1 | GM fungal MICc [9]: 52.3 | MFC [10]: > 128 µg/mL | MIC [10]: 128 µg/mL (≈ 333 µM) | MFC [11]: > 128 µg/mL | MIC [11]: 128 µg/mL (≈ 333 µM) | MFC ([12]; across eight species, read-out: Geometric mean MFC): 197 µg/mL (≈ 513 µM) | MIC ([12]; geometric mean across eight species, read-out: GM fungal MIC): 128 µg/mL (≈ 333 µM) | MIC ([12]; read-out: Geometric mean MIC): 128 µg/mL (≈ 333 µM) | FICI (FLC:INH) [13, 26]: ≥4 | FICI (ITR:INH) [13, 27]: 1.5 | FICI (KET:INH) [13, 28]: 2 | INH MICc (FLC:INH) [13, 29]: 256 | INH MICc (ITR:INH) [13, 30]: 128 | INH MICc (KET:INH) [13, 31]: 128 | FLC FD (FLC:INH) [13, 32]: -2 | ITR FD (ITR:INH) [13, 33]: 2 | KET FD (KET:INH) [13, 34]: 1 | INH FD (FLC:INH) [13, 35]: -2 | INH FD (ITR:INH) [13, 36]: 1 | INH FD (KET:INH) [13, 37]: 1 | FICI ([14]; FLC:INH combination): 2.5 | FLC MICc [14, 38]: 8 | INH MICc [14, 20]: 16 | FLC FD (MIC-MICc fold decrease) [14, 21]: -2 | INH FD (MIC-MICc fold decrease) ([14]; FLC:INH combination): 2 | FICI ([14]; ITR:INH combination): 3 | ITR MICc [14, 39]: 0.5 | INH MICc [14, 22]: 32 | ITR FD (MIC-MICc fold decrease) [14, 23]: -2 | INH FD (MIC-MICc fold decrease) ([14]; ITR:INH combination): 1 | FICI ([14]; KET:INH combination): 1.06 | KET MICc [14, 40]: 2 | INH MICc [14, 24]: 2 | KET FD (MIC-MICc fold decrease) [14, 25]: 1 | INH FD (MIC-MICc fold decrease) ([14]; KET:INH combination): 16 | FICI ([15]; FLC:INH combination): 2.13 | INH MICc [15, 20]: 16 | FLC FD (MIC-MICc fold decrease) [15, 21]: -2 | INH FD (MIC-MICc fold decrease) ([15]; FLC:INH combination): 8 | FICI ([15]; ITR:INH combination): 2.13 | INH MICc [15, 22]: 16 | ITR FD (MIC-MICc fold decrease) [15, 23]: -2 | INH FD (MIC-MICc fold decrease) ([15]; ITR:INH combination): 8 | FICI ([15]; KET:INH combination): 2.13 | INH MICc [15, 24]: 16 | KET FD (MIC-MICc fold decrease) [15, 25]: -2 | INH FD (MIC-MICc fold decrease) ([15]; KET:INH combination): 8 | MFC [16]: 32 µg/mL (≈ 83.2 µM) | MIC [16]: 32 µg/mL (≈ 83.2 µM) | IC50 ([17]; HEK-293T cells, read-out: IC50): 41.4 µg/mL (≈ 108 µM) | IC50 ([17]; read-out: HEK IC50): 41.4 µg/mL (≈ 108 µM) | MFC [18]: > 128 µg/mL | MIC [18]: 128 µg/mL (≈ 333 µM) | FICI ([19]; FLC:INH combination): 3 | FLC MICc [19, 38]: 128 | INH MICc [19, 20]: 256 | FLC FD (MIC-MICc fold decrease) [19, 21]: 1 | INH FD (MIC-MICc fold decrease) ([19]; FLC:INH combination): -2 | FICI ([19]; ITR:INH combination): 1.03 | ITR MICc [19, 39]: 0.125 | INH MICc [19, 22]: 4 | ITR FD (MIC-MICc fold decrease) [19, 23]: 1 | INH FD (MIC-MICc fold decrease) ([19]; ITR:INH combination): 32 | FICI ([19]; KET:INH combination): 2 | KET MICc [19, 40]: 4 | INH MICc [19, 24]: 128 | KET FD (MIC-MICc fold decrease) [19, 25]: 1 | INH FD (MIC-MICc fold decrease) ([19]; KET:INH combination): 1
